Here are results for 31 compounds from patent US20100168102A9, “Amide Derivatives as Kinase Inhibitors” (Devgen NV, priority 2005, published 2010).

Structures can show the parent of a compound that is named as a salt. Where two headings read alike, the source gives them in different places.

The target of one assay is T1, PKC epsilon (Homo sapiens, UniProt Q02156).
T1 construct: purchased Invitrogen P2282
T1 sequence (Q02156 1-737): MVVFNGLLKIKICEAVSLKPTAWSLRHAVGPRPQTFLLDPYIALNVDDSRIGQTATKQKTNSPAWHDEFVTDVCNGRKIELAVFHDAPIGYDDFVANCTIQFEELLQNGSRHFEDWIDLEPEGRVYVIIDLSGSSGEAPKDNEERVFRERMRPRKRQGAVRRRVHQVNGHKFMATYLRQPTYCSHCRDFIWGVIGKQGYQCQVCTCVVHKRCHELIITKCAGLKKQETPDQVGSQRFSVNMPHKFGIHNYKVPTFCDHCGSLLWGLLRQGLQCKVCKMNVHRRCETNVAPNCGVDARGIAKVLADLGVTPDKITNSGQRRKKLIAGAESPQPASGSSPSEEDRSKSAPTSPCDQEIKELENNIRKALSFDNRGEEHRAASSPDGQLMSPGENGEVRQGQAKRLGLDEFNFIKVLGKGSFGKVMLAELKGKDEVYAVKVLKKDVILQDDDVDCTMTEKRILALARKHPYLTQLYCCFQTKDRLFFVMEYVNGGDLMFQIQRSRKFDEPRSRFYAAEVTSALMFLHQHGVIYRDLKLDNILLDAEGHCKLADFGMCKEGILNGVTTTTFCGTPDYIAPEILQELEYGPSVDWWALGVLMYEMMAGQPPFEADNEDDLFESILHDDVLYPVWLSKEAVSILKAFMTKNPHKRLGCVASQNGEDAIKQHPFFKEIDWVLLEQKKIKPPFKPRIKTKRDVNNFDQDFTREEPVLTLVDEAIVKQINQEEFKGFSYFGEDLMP
In words: Biochemical assay for PKC epsilon (fluorescence polarization, Protein Kinase C Assay Kit, Red). The note with it: read-out: IC50 μM PKCε. A digest of the protocol:
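Read-out was fluorescence-polarization competition between phosphorylated substrate and a rhodamine PKC tracer for an anti-phosphoserine antibody, added with EDTA stop after an 80 min room-temperature kinase reaction with ATP and protein substrate (Mg2+/Ca2+ buffer). Enzyme (10 ng/ml final) was preincubated with compound for 30 min.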
(In fluorescence polarisation assays a small probe gives low polarisation when free and higher when bound to something large.)

For a further assay, the target named is T2, human ROCKα/ROCKII mix (Homo sapiens, UniProt O75116).
T2 construct: purchased Upstate Biotechnology 14-451
Briefly: Biochemical assay for ROCK (fluorescence polarization, ROCK IMAP Kit).

[1] abbreviates: Table 2, compounds of Formula XIII.
Where [2] appears, read: compounds of Formula XIV, Table 3.

The IC50 is the concentration that gives 50% inhibition.

T2 sequence (O75116 11-552 limits assumed): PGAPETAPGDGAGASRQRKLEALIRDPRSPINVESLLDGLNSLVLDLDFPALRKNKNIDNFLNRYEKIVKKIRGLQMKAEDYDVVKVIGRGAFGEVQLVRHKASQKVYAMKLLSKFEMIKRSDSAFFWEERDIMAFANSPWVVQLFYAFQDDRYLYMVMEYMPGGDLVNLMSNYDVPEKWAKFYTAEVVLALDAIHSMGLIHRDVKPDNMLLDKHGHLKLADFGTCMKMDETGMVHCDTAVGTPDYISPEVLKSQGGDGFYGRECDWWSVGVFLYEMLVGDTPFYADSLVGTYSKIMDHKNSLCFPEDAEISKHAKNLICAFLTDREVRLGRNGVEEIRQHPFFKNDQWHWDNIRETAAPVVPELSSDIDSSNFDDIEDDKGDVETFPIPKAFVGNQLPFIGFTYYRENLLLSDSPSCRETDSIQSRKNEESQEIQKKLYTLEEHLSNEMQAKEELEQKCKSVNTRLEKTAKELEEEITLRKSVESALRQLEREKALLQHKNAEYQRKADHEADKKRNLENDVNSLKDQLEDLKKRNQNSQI

Take `NC(CNC(=O)CC(c1ccccc1)c1ccccc1)c1ccc(C(=O)Nc2ccncc2)cc1` (centres unmarked) [Compound 160, 4-[1-Amino-2-(3,3-diphenyl-propionylamino)-ethyl]-N-pyridin-4-yl-benzamide]: the values for the concentration for half-maximal inhibition (IC50) at PKC epsilon (setting [1]) and against human ROCKα/ROCKII mix (setting [1]) were 5 to 50 µM and 0.05 to 0.5 µM, respectively.

Consider `NC(CNC(=O)C1Cc2ccccc21)c1ccc(C(=O)Nc2ccncc2)cc1` (centres unmarked) [Compound 161, Bicyclo[4.2.0]octa-1,3,5-triene-7-carboxylic acid {2-amino-2-[4-(pyridin-4-ylcarbamoyl)-phenyl]-ethyl}-amide], for which the IC50 on PKC epsilon (setting [1]) was in the range of 0.5 to 5 µM; at human ROCKα/ROCKII mix (setting [1]) it was 0.05 to 0.5 µM.

As for `NC(CNC(=O)CCc1ccccc1)c1ccc(C(=O)Nc2ccncc2)cc1` (centres unmarked) [Compound 162], the figures for the IC50 on PKC epsilon (setting [1]) and against human ROCKα/ROCKII mix (setting [1]) were 0.5 to 5 µM and 0.05 to 0.5 µM, respectively.

As to `NC(CNC(=O)CCc1ccc(F)cc1)c1ccc(C(=O)Nc2ccncc2)cc1` (centres unmarked) [Compound 163, 4-{1-amino-2-[3-(4-fluoro-phenyl)-propionylamino]-ethyl}-N-pyridin-4-yl-benzamide], the IC50 on PKC epsilon (setting [1]) and against human ROCKα/ROCKII mix (setting [1]) was 0.05 to 0.5 µM each time.

For `NC(CNC(=O)C1CCc2ccccc2C1)c1ccc(C(=O)Nc2ccncc2)cc1` (centres unmarked) [Compound 164, 1,2,3,4-Tetrahydro-naphtalene-2-carboxylic acid {2-amino-2-[4-(pyridin-4-ylcarbamoyl)-phenyl]-ethyl}-amide], the IC50 on PKC epsilon (setting [1]) and on human ROCKα/ROCKII mix (setting [1]) was 0.5 to 5 µM throughout.

On to `CC1=C(C(=O)NCC(N)c2ccc(C(=O)Nc3ccncc3)cc2)Cc2ccccc21` (centres unmarked) [Compound 165, 3-Methyl-1H-indene-2-carboxylic acid {2-amino-2-[4-(pyridin-4-ylcarbamoyl)-phenyl]-ethyl}-amide], for which the IC50 at PKC epsilon (setting [1]) and on human ROCKα/ROCKII mix (setting [1]) was 0.5 to 5 µM throughout.

On to `NC(CNC(=O)CCc1cccnc1)c1ccc(C(=O)Nc2ccncc2)cc1` (centres unmarked) [Compound 166, 4-[1-Amino-2-(3-pyridin-3-yl-propionylamino)-ethyl]-N-pyridin-4-yl-benzamide], for which the IC50 on PKC epsilon (setting [1]) is 5 to 50 µM; at human ROCKα/ROCKII mix (setting [1]), 0.5 to 5 µM.

`NC(CNC(=O)Cc1ccc(F)c(F)c1)c1ccc(C(=O)Nc2ccncc2)cc1` (centres unmarked) [Compound 167, 4-{1-Amino-2-[2-(3,4-difluoro-phenyl)-acetylamino]-ethyl}-N-pyridin-4-yl-benzamide dihydrochloride]: the 50% inhibitory concentration (IC50) at PKC epsilon (setting [1]) and against human ROCKα/ROCKII mix (setting [1]) was 0.05 to 0.5 µM throughout.

Regarding `CCNC(=O)CC(N)c1ccc(C(=O)Nc2ccncc2)cc1` (centres unmarked) [Compound 169], the IC50 fell in the range of 0.5 to 5 µM at PKC epsilon (setting [2]) and 0.05 to 0.5 µM at human ROCKα/ROCKII mix (setting [2]).

Take `CC(C)C(C)NC(=O)CC(N)c1ccc(C(=O)Nc2ccncc2)cc1` (centres unmarked) [Compound 170, 4-[1-amino-2-(1,2-dimethyl-propylcarbamoyl)-ethyl]-N-pyridin-4-yl-benzamide]: the half-inhibitory concentration (IC50) on PKC epsilon (setting [2]) is 0.5 to 5 µM; against human ROCKα/ROCKII mix (setting [2]), 0.05 to 0.5 µM.

`CN(C)CCNC(=O)CC(N)c1ccc(C(=O)Nc2ccncc2)cc1` (centres unmarked) [Compound 174, 4-[1-amino-2-(2-dimethylamino-ethylcarbamoyl)-ethyl]-N-pyridin-4-yl-benzamide]: the concentration for half-maximal inhibition (IC50) at PKC epsilon (setting [2]) is 0.5 to 5 µM; at human ROCKα/ROCKII mix (setting [2]) it was 0.05 to 0.5 µM.

For the compound `CC(=O)NCCNC(=O)CC(N)c1ccc(C(=O)Nc2ccncc2)cc1` (centres unmarked) [Compound 175, 4-[2-(2-acetylamino-ethylcaramoyl)-1-amino-ethyl]-N-pyridin-4-yl-benzamide], the IC50 at PKC epsilon (setting [2]) was in the range of 0.5 to 5 µM; on human ROCKα/ROCKII mix (setting [2]), 0.05 to 0.5 µM.

Consider `CS(=O)(=O)NCCNC(=O)CC(N)c1ccc(C(=O)Nc2ccncc2)cc1` (centres unmarked) [Compound 176, 4-[1-amino-2-(2-methanesulfonylamino-ethylcarbamoyl)-ethyl]-N-pyridin-4-yl-benzamide], for which the IC50 fell in the range of 0.5 to 5 µM at PKC epsilon (setting [2]) and 0.05 to 0.5 µM on human ROCKα/ROCKII mix (setting [2]).

For `N#CCCN(C(=O)CC(N)c1ccc(C(=O)Nc2ccncc2)cc1)C1CC1` (centres unmarked) [Compound 178, 4-{1-amino-2-[(2-cyano-ethyl)-cyclopropyl-carbamoyl]-ethyl}-N-pyridin-4-yl-benzamide], the results for the half-inhibitory concentration (IC50) on PKC epsilon (setting [2]) and against human ROCKα/ROCKII mix (setting [2]) were 5 to 50 µM and 0.5 to 5 µM, respectively.

`CN(CCO)C(=O)CC(N)c1ccc(C(=O)Nc2ccncc2)cc1` (centres unmarked) [Compound 179, 4-{1-amino-2-[(2-hydroxy-ethyl)-methyl-carbamoyl]-ethyl}-N-pyridin-4-yl-benzamide]: the IC50 on PKC epsilon (setting [2]) was in the range of 0.5 to 5 µM; against human ROCKα/ROCKII mix (setting [2]), 0.05 to 0.5 µM.

As to `COCCNC(=O)CC(N)c1ccc(C(=O)Nc2ccncc2)cc1` (centres unmarked) [Compound 180, 4-[1-amino-2-(2-methoxy-ethylcarbamoyl)-ethyl]-N-pyridin-4-yl-benzamide], the half-maximal inhibitory concentration (IC50) was in the range of 0.5 to 5 µM on PKC epsilon (setting [2]) and 0.05 to 0.5 µM on human ROCKα/ROCKII mix (setting [2]).

For `COCC(C)NC(=O)CC(N)c1ccc(C(=O)Nc2ccncc2)cc1` (centres unmarked) [Compound 181, 4-[1-amino-2-(2-methoxy-1-methyl-ethylcarbamoyl)-ethyl]-N-pyridin-4-yl-benzamide], the half-inhibitory concentration (IC50) lay in the range of 0.5 to 5 µM at PKC epsilon (setting [2]) and 0.05 to 0.5 µM against human ROCKα/ROCKII mix (setting [2]).

Regarding `COC(=O)C(C)NC(=O)CC(N)c1ccc(C(=O)Nc2ccncc2)cc1` (centres unmarked) [Compound 182], the IC50 at PKC epsilon (setting [2]) lay within 0.5 to 5 µM; on human ROCKα/ROCKII mix (setting [2]) it was 0.05 to 0.5 µM.

Consider `CONC(=O)CC(N)c1ccc(C(=O)Nc2ccncc2)cc1` (centres unmarked) [Compound 183, 4-(1-amino-2-methoxycarbamoyl-ethyl)-N-pyridin-4-yl-benzamide], for which the IC50 on PKC epsilon (setting [2]) is 0.5 to 5 µM; against human ROCKα/ROCKII mix (setting [2]), 0.05 to 0.5 µM.

`NC(CC(=O)NCC1CCCO1)c1ccc(C(=O)Nc2ccncc2)cc1` (centres unmarked) [Compound 184, 4-{1-amino-2-[(tetrahydro-furan-2-ylmethyl)-carbamoyl]-ethyl}-N-pyridin-4-yl-benzamide]: the figures for the half-maximal inhibitory concentration (IC50) on PKC epsilon (setting [2]) and against human ROCKα/ROCKII mix (setting [2]) were 0.5 to 5 µM and 0.05 to 0.5 µM, respectively.

Consider `NC(CC(=O)NC1CCN(Cc2ccccc2)CC1)c1ccc(C(=O)Nc2ccncc2)cc1` (centres unmarked) [Compound 200, 4-[1-amino-2-(1-benzyl-piperidin-4-ylcarbamoyl)-ethyl]-N-pyridin-4-yl-benzamide], for which the 50% inhibitory concentration (IC50) on PKC epsilon (setting [2]) was 0.5 to 5 µM; on human ROCKα/ROCKII mix (setting [2]) it was 0.05 to 0.5 µM.

As to `Cc1cccc(CN2CCC(NC(=O)CC(N)c3ccc(C(=O)Nc4ccncc4)cc3)CC2)c1` (centres unmarked) [Compound 201, 4-{1-amino-2-[1-(3-methyl-benzyl)-piperidin-4-ylcarbamoyl]-ethyl}-N-pyridin-4-yl-benzamide], the IC50 at PKC epsilon (setting [2]) was in the range of 0.5 to 5 µM; at human ROCKα/ROCKII mix (setting [2]) it was 0.05 to 0.5 µM.

Turning to `Cc1ccc(CN2CCC(NC(=O)CC(N)c3ccc(C(=O)Nc4ccncc4)cc3)CC2)s1` (centres unmarked) [Compound 202], the results for the half-inhibitory concentration (IC50) on PKC epsilon (setting [2]) and on human ROCKα/ROCKII mix (setting [2]) were 0.5 to 5 µM and 0.05 to 0.5 µM, respectively.

As to `NC(CC(=O)NCc1ccccc1)c1ccc(C(=O)Nc2ccncc2)cc1` (centres unmarked) [Compound 213, 4-(1-Amino-2-benzylcarbamoyl-ethyl)-N-pyridin-4-yl-benzamide], the IC50 at PKC epsilon (setting [2]) fell in the range of 0.5 to 5 µM; at human ROCKα/ROCKII mix (setting [2]), 0.05 to 0.5 µM.

Regarding `CC(NC(=O)CC(N)c1ccc(C(=O)Nc2ccncc2)cc1)c1ccccc1` (centres unmarked) [Compound 215, 4-[1-Amino-2-(1-phenyl-ethylcarbamoyl)-ethyl]-N-pyridin-4-yl-benzamide], the IC50 is 0.5 to 5 µM at PKC epsilon (setting [2]) and 0.05 to 0.5 µM on human ROCKα/ROCKII mix (setting [2]).

Take `CC[C@@H](NC(=O)CC(N)c1ccc(C(=O)Nc2ccncc2)cc1)c1ccccc1` (stereo partly drawn) [Compound 216, 4-[1-Amino-2-(1-(R)-phenyl-propylcarbamoyl)-ethyl]-N-pyridin-4-yl-benzamide]: the concentration for half-maximal inhibition (IC50) on PKC epsilon (setting [2]) was in the range of 0.5 to 5 µM; on human ROCKα/ROCKII mix (setting [2]), 0.05 to 0.5 µM.

For `CC[C@H](NC(=O)CC(N)c1ccc(C(=O)Nc2ccncc2)cc1)c1ccccc1` (stereo partly drawn) [Compound 217, 4-[1-Amino-2-(1-(S)-phenyl-propylcarbamoyl)-ethyl]-N-pyridin-4-yl-benzamide], the IC50 on PKC epsilon (setting [2]) was 0.5 to 5 µM; on human ROCKα/ROCKII mix (setting [2]) it was 0.05 to 0.5 µM.

Regarding `CC(C)(NC(=O)CC(N)c1ccc(C(=O)Nc2ccncc2)cc1)c1ccccc1` (centres unmarked) [Compound 218, 4-[1-Amino-2-(1-methyl-1-phenyl-ethylcarbamoyl)-ethyl]-N-pyridin-4-yl-benzamide], the half-maximal inhibitory concentration (IC50) on PKC epsilon (setting [2]) was 0.5 to 5 µM; at human ROCKα/ROCKII mix (setting [2]), 0.05 to 0.5 µM.

For the compound `NC(CC(=O)NC1CCCc2ccccc21)c1ccc(C(=O)Nc2ccncc2)cc1` (centres unmarked) [Compound 223, 4-[1-Amino-2-(1,2,3,4-tetrahydro-naphtalen-1-ylcarbamoyl)-ethyl]-N-pyridin-4-yl-benzamide], the IC50 on PKC epsilon (setting [2]) and on human ROCKα/ROCKII mix (setting [2]) was 0.05 to 0.5 µM each time.

For `NC(CC(=O)NC(c1ccccc1)c1ccccc1)c1ccc(C(=O)Nc2ccncc2)cc1` (centres unmarked) [Compound 225, 4-[1-Amino-2-(benzhydryl-carbamoyl)-ethyl]-N-pyridin-4-yl-benzamide], the results for the IC50 on PKC epsilon (setting [2]) and against human ROCKα/ROCKII mix (setting [2]) were 0.5 to 5 µM and 0.05 to 0.5 µM, respectively.

Take `NC(CC(=O)NC1c2ccccc2-c2ccccc21)c1ccc(C(=O)Nc2ccncc2)cc1` (centres unmarked) [Compound 227, 4-[1-Amino-2-(9H-fluoren-9-ylcarbamoyl)-ethyl]-N-pyridin-4-yl-benzamide]: the IC50 on PKC epsilon (setting [2]) lay within 0.5 to 5 µM; against human ROCKα/ROCKII mix (setting [2]), 0.05 to 0.5 µM.
